Reference: patent publication US20090163490A1, “Pyrrolopyrimidine Derivatives Used As HSP90 Inhibitors” (VERNALIS (R&D) LTD., priority 2006, published 2009)
Read-outs that look alike come from different tables or passages of the source.

Key:
[1] = molecular target: T1, human full-length HSP90 (Homo sapiens, UniProt P08238); assay: Fluorescence polarization (FP) binding assay; conditions: competitive displacement of fluorescein-labelled probe from human full-length HSP90, activity range
T1 construct: E. coli expressed human full-length HSP90 protein, purified >95%; made in house; host or cells: E. coli
T1 sequence (P08238 whole entry): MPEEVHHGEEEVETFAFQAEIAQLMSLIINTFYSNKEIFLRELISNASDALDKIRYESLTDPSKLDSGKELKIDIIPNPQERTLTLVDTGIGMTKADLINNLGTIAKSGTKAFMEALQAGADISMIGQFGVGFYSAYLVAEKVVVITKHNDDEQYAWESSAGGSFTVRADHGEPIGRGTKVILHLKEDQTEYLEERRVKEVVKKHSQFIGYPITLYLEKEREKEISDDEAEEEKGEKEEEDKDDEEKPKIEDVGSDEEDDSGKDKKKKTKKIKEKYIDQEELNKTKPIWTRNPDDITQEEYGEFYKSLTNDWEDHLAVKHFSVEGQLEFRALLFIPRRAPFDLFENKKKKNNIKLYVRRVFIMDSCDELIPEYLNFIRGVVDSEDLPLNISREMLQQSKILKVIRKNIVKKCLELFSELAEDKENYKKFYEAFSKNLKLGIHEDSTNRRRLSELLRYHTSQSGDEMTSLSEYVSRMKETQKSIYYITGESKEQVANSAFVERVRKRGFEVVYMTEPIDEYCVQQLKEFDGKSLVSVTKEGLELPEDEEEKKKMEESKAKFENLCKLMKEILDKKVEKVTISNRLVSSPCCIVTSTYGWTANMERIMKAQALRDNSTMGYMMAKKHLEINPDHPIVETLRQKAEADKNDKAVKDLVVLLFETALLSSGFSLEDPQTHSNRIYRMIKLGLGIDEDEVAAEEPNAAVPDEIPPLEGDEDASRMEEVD
Text: Fluorescence Polarization Assay
Fluorescence polarization {also known as fluorescence anisotropy} measures the rotation of a fluorescing species in solution, where the larger molecule the more polarized the fluorescence emission. When the fluorophore is excited with polarized light, the emitted light is also polarized. The molecular size is proportional to the polarization of the fluorescence emission.
The fluoroscein-labelled probe—
binds to HSP90 {full-length human, full-length yeast or N-terminal domain HSP90} and the anisotropy {rotation of the probe:protein complex} is measured.
Test compound is added to the assay plate, left to equilibrate and the anisotropy measured again. Any change in anisotropy is due to competitive binding of compound to HSP90, thereby releasing probe.
Stored at room temperature. • 3) BSA (bovine serum albumen) 10 mg/ml (New England Biolabs # B9001S) • 4) 20 mM probe in 100% DMSO stock concentration. Stored in the dark at RT. Working concentration is 200 nM diluted in AR water and stored at 4° C.
• 1) Add 100 μl×buffer to wells 1A and 12A(=FP BLNK) • 2) Prepare assay mix—all reagents are kept on ice with a lid on the bucket as the probe is light-sensitive.
• 3) Aliquot 100 μl assay mix to all other wells • 4) Seal plate and leave in dark at room temp for 20 minutes to equilibrate
This gives 2.5 mM {50×} stock cpd−assuming cpds 20 mM. • 4) Repeat for wells A2 to A10. Control in columns 11 and 12. • 5) Transfer 5 μl from row A to row B—not column 12. Mix well. • 6) Transfer 5 μl from row B to row C. […] Add 2 μl of 100 mM standard cpd to wells B12-H12 {is positive control} • 13) The Z′ factor is calculated from zero controls and positive wells.

[2] = system: BT474 cells; assay: Sulforhodamine B (SRB) growth inhibition assay; assay type: cell-based; conditions: Homo sapiens, BT-474, activity range
Description: A growth inhibition assay was also employed for the evaluation of test compounds:
Assessment of Cytotoxicity by Sulforhodamine B (SRB) Assay: Calculation of 50% Inhibitory Concentration (IC50).
• 1) Determine cell number by haemocytometer. • 2) Using an 8 channel multipipettor, add 160 μl of the cell suspension (3600 cells/well or 2×10^4 cells/ml) to each well of a 96-well microtitre plate. • 3) Incubate overnight at 37° C. in a CO2 incubator.
• 4) Stock solutions of drugs are prepared, and serial dilutions of each drug are performed in medium to give final concentrations in wells. • 5) Using a multipipettor, 40 μl of drug (at 5× final concentration) is added to quadruplicate wells. • 6) Control wells are at either side of the 96 well plates, where 40 μl of medium is added. • 7) Incubate plates in CO2 incubator for […].
• 8) Tip off medium into sink and immerse plate slowly into 10% ice cold trichloroacetic acid (TCA). Leave for about 30 mins on ice. • 9) Wash plates three times in tap water by immersing the plates into baths of tap water and tipping it off. • 10) Dry in incubator. • 11) Add 100 μl of 0.4% SRB in 1% acetic acid to each well (except the last row (right hand) of the 96 well plate, this is the 0% control, ie no drug, no stain. The first row will be the 100% control with no drug, but with stain). Leave for 15 mins. • 12) Wash off unbound SRB stain with four washes of 1% acetic acid. • 13) Dry plates in incubator. • 14) Solubilised SRB using […] of 10 mM Tris base and put plates on plate shaker for 5 mins. • 15) Determine absorbance at 540 nm using a plate reader. Calculate mean absorbance for quadruplicate wells and express as a percentage of value for control, untreated wells. • 16) Plot % absorbance values versus log drug concentration and determine the GI50., ie the concentration of test compound required to inhibit growth of the cells by 50%.
The compounds tested in the above assay were assigned to one of three activity ranges, namely A=<0.5 μM; B=0.5 μM to 10 μM; C=>10 μM, and the results for six of the compounds of the invention are reported in Table 2.

[3] = read-out: ACTIVITY* (Activity in the FP binding assay)
[4] = read-out: activity in the fluorescence polarization assay

Row | Compound | IC50 [1, 3] [nM] | GI50 [2] [nM] | IC50 [1, 4] [nM]
1 | CC(C)Sc1nc(-c2cc(OCc3ccccc3)c(Cl)cc2Cl)c2c(C#N)c[nH]c2n1 [Example 51] | 500 to 10000 | 500 to 10000 | –
2 | CCN(CC)CCSc1nc(-c2ccc(F)cc2C)c2c(C#N)c[nH]c2n1 [Example 19, 2-(2-Diethylamino-ethylsulfanyl)-4-(4-fluoro-2-methyl-phenyl)-7H-pyrrolo[2,3-d]pyrimidine-5-carbonitrile] | – | 500 to 10000 | < 500
3 | CCN(CC)CCOc1cc(-c2nc(SCC(=O)NC)nc3[nH]cc(C#N)c23)c(Cl)cc1Cl [Example 28, 2-{5-Cyano-4-[2,4-dichloro-5-(2-diethylamino-ethoxy)-phenyl]-7H-pyrrolo[2,3-d]pyrimidin-2-ylsulfanyl}-N-methyl-acetamide] | – | < 500 | < 500
4 | COc1cc(Cl)c(-c2nc(SC)nc3[nH]cc(C#N)c23)cc1OCCN1CC[C@@H](F)C1 [Example 72] | < 500 | < 500 | –
5 | COc1cc(Cl)c(-c2nc(OCCN3CCC(F)(F)CC3)nc3[nH]cc(C#N)c23)cc1OC [Example 31, 4-(2-Chloro-4,5-dimethoxy-phenyl)-2-[2-(4,4-difluoro-piperidin-1-yl)-ethoxy]-7H-pyrrolo[2,3-d]pyrimidine-5-carbonitrile] | – | < 500 | < 500
6 | CCN(CC)CCOc1nc(-c2cc(OC)c(Cl)cc2Cl)c2c(C#N)c[nH]c2n1 [Example 24, 4-(2,4-Dichloro-5-methoxy-phenyl)-2-(2-diethylamino-ethoxy)-7H-pyrrolo[2,3-d]pyrimidine-5-carbonitrile] | – | 500 to 10000 | < 500
